Here are results for one molecule from patent publication US20200093103A1, “BREEDING WATER FOR ANGUILLIFORMES AND METHOD FOR REARING ANGUILLIFORMES” (SHIN NIPPON BIOMEDICAL LABORATORIES, LTD., priority 2016, published 2020).

The test system of the assay is Anguilla japonica leptocephali. Briefly: Induction of Anguilla japonica metamorphosis by T4 treatment in 23° C. breeding water. Type of assay: in vivo. Also noted: key: L: During life, no characteristics of metamorphosis seen.; Stage 1: Starting phase of metamorphosis. The rostral end is rounded, and intestinal degeneration starts.; Stage 2: Peak phase of metamorphosis. Intestinal degeneration becomes pronounced.; Stage 3: Late phase of metamorphosis.; Stage 4: Pre-glass eel stage. Almost the eel form, but the body height still remains. The source says:
Stage 1: Starting phase of metamorphosis. The rostral end is rounded, and intestinal degeneration starts.
Stage 2: Peak phase of metamorphosis. Intestinal degeneration becomes pronounced. In the second half, the anus reaches to near the last vertical blood vessel (VBV last).
Stage 3: Late phase of metamorphosis. The preanal length (PAL) becomes equal to or shorter than the last vertical blood vessel length (VBV last Length) (PAL VBV last Length). The body height is apparently low.
Stage 4: Pre-glass eel stage. Almost the eel form, but the body height still remains. Melanophores on the body surface or endogenous melanophores are not yet seen.
Elver stage: Juvenile stage. Food intake can be identified.
A thyroid hormone (e.g., thyroxine (T4)) is adjusted to 50 to 100 mM in a 1- to 2-mL volume messflask. As a solvent, known solvents (water, alcohol) can be used. Ethanol is preferably used as the solvent.
For example, using ethanol as a solvent, T4 adjusted to 50 mM is diluted 500-fold, 5,000-fold, and 50,000-fold, respectively, and adjusted to […], 1 μM, and 100 nM. A feed can be prepared in this manner.
Artificial seawater is added to a breeding vessel, and 1/1000 of the […] T4 is added to prepare […] T4 breeding water.
Half of the breeding water is replaced every two days with breeding water of the same concentration. In the case where the concentration is changed, for example, in the case of changing from 10 nM to 2 nM, 80% to the breeding water is removed, and unadjusted artificial seawater is newly added to make 1 L.
Leptocephali visually considered to have reached a total length of 40 mm (or may be 30 mm to 50 mm, may be 35 mm to 45 mm, or may also be 35 mm or more, 40 mm or more, or 45 mm or more) are selected, anesthetized with 2-phenoxyethanol, and then photographed, and the total length of each larva is measured using an image analyzing device.
The larvae are placed in 10 nM T4 breeding water and then placed in an incubator set at 23° C., and breeding is started. In first one week, observation is performed every two days, and half of the 10 nM T4 breeding water is replaced each time. The average amount of thyroid hormone in the breeding water in stage 1 is 1 nM to 100 nM, for example, and may also be 3 nM to 30 nM, or 5 nM to 20 nM.
For larvae visually judged to have reached the second half of stage 2, the concentration of the breeding water is changed. The breeding water is diluted 5-fold or 10-fold and adjusted to 2 nM or 1 nM T4, and breeding is continued. The average amount of thyroid hormone in the breeding water in stage 2 may be, as compared with the breeding water of stage 1, diluted 2-fold to 20-fold, diluted 3 to 15-fold, or diluted 5 to 10-fold as described above. The average amount of thyroid hormone in the breeding water in stage 2 is 0.1 nM to 20 nM, for example, and may also be 0.5 nM to 10 nM, 1 nM to 5 nM, or 1 nM to 2 nM.
For larvae visually judged to have reached stage 3, the breeding water is quickly changed 0.2 nM T4 breeding water, which is a 5-fold dilution of 1 nM T4 breeding water, and further changed to 0.1 nM T4 breeding water on the following day. […] Also, in larvae whose anus position has not reached the last vertical hemal spine, when they are judged to be on the brink of stage 3, the concentration is changed as above. The average amount of thyroid hormone in the breeding water in stage 3 may be, as compared with the breeding water of stage 2, diluted 2-fold to 50-fold, diluted 3 to 15-fold, diluted 4 to 6-fold, or diluted 5-fold as described above. The average amount of thyroid hormone in the breeding water in stage 3 is 0.01 nM to 2 nM, for example, and may also be 0.05 nM to 1 nM, 0.1 nM to 0.5 nM, or 0.1 nM to 0.2 nM. […] That is, the concentration may be changed such that the thyroid hormone becomes undetectable in the breeding water in the course of stage 3.
In stage 3, breeding is continuously performed in the 0.1 nM T4 breeding water. […]

For `N[C@@H](Cc1cc(I)c(Oc2cc(I)c(O)c(I)c2)c(I)c1)C(=O)O` [T4, thyroxine], the metamorphosis stage entry is “L” (individual Exp 5-4, 175 days old, total length 43.5 mm at start, c3 onward = treatment days 1,3,5,7,8,9,10,11,12,13,14,15,16,17,18, T4 (nM) 10,10,10,10,2,1,0.2,0.1,0.1,0.1,0.1,0.1, treatment day 1, T4 10 nM); “L” (individual Exp 5-4, 175 days old, total length 43.5 mm at start, c3 onward = treatment days 1,3,5,7,8,9,10,11,12,13,14,15,16,17,18, T4 (nM) 10,10,10,10,2,1,0.2,0.1,0.1,0.1,0.1,0.1, treatment day 3, T4 10 nM); 2 (individual Exp 5-4, 175 days old, total length 43.5 mm at start, c3 onward = treatment days 1,3,5,7,8,9,10,11,12,13,14,15,16,17,18, T4 (nM) 10,10,10,10,2,1,0.2,0.1,0.1,0.1,0.1,0.1, treatment day 5, T4 10 nM); 2 (individual Exp 5-4, 175 days old, total length 43.5 mm at start, c3 onward = treatment days 1,3,5,7,8,9,10,11,12,13,14,15,16,17,18, T4 (nM) 10,10,10,10,2,1,0.2,0.1,0.1,0.1,0.1,0.1, treatment day 7, T4 10 nM); 2 (individual Exp 5-4, 175 days old, total length 43.5 mm at start, c3 onward = treatment days 1,3,5,7,8,9,10,11,12,13,14,15,16,17,18, T4 (nM) 10,10,10,10,2,1,0.2,0.1,0.1,0.1,0.1,0.1, treatment day 8, T4 2 nM); 2 (individual Exp 5-4, 175 days old, total length 43.5 mm at start, c3 onward = treatment days 1,3,5,7,8,9,10,11,12,13,14,15,16,17,18, T4 (nM) 10,10,10,10,2,1,0.2,0.1,0.1,0.1,0.1,0.1, treatment day 9, T4 1 nM). In addition, the metamorphosis stage runs as follows: (individual Exp 5-4, 175 days old, total length 43.5 mm at start, c3 onward = treatment days 1,3,5,7,8,9,10,11,12,13,14,15,16,17,18, T4 (nM) 10,10,10,10,2,1,0.2,0.1,0.1,0.1,0.1,0.1, treatment day 10, T4 0.2 nM) 2; (individual Exp 5-4, 175 days old, total length 43.5 mm at start, c3 onward = treatment days 1,3,5,7,8,9,10,11,12,13,14,15,16,17,18, T4 (nM) 10,10,10,10,2,1,0.2,0.1,0.1,0.1,0.1,0.1, treatment day 11, T4 0.1 nM) 2; (individual Exp 5-4, 175 days old, total length 43.5 mm at start, c3 onward = treatment days 1,3,5,7,8,9,10,11,12,13,14,15,16,17,18, T4 (nM) 10,10,10,10,2,1,0.2,0.1,0.1,0.1,0.1,0.1, treatment day 12, T4 0.1 nM) 3; (individual Exp 5-4, 175 days old, total length 43.5 mm at start, c3 onward = treatment days 1,3,5,7,8,9,10,11,12,13,14,15,16,17,18, T4 (nM) 10,10,10,10,2,1,0.2,0.1,0.1,0.1,0.1,0.1, treatment day 13, T4 0.1 nM) 3; (individual Exp 5-4, 175 days old, total length 43.5 mm at start, c3 onward = treatment days 1,3,5,7,8,9,10,11,12,13,14,15,16,17,18, T4 (nM) 10,10,10,10,2,1,0.2,0.1,0.1,0.1,0.1,0.1, treatment day 14, T4 0.1 nM) 3; (individual Exp 5-4, 175 days old, total length 43.5 mm at start, c3 onward = treatment days 1,3,5,7,8,9,10,11,12,13,14,15,16,17,18, T4 (nM) 10,10,10,10,2,1,0.2,0.1,0.1,0.1,0.1,0.1, treatment day 15, T4 0.1 nM) 4. The metamorphosis stage entry by setting is: (individual Exp 5-5, 174 days old, total length 36.1 mm at start, c3 onward = treatment days 1,3,5,7,8,9,10,11,12,13,14,15,16,17, T4 (nM) 10,10,10,10,10,10,10,2,0.2,0.1,0.1,0.1,0.1,0.1, treatment day 1, T4 10 nM) “L”; (individual Exp 5-5, 174 days old, total length 36.1 mm at start, c3 onward = treatment days 1,3,5,7,8,9,10,11,12,13,14,15,16,17, T4 (nM) 10,10,10,10,10,10,10,2,0.2,0.1,0.1,0.1,0.1,0.1, treatment day 3, T4 10 nM) “L”; (individual Exp 5-5, 174 days old, total length 36.1 mm at start, c3 onward = treatment days 1,3,5,7,8,9,10,11,12,13,14,15,16,17, T4 (nM) 10,10,10,10,10,10,10,2,0.2,0.1,0.1,0.1,0.1,0.1, treatment day 5, T4 10 nM) “L”; (individual Exp 5-5, 174 days old, total length 36.1 mm at start, c3 onward = treatment days 1,3,5,7,8,9,10,11,12,13,14,15,16,17, T4 (nM) 10,10,10,10,10,10,10,2,0.2,0.1,0.1,0.1,0.1,0.1, treatment day 7, T4 10 nM) “L”; (individual Exp 5-5, 174 days old, total length 36.1 mm at start, c3 onward = treatment days 1,3,5,7,8,9,10,11,12,13,14,15,16,17, T4 (nM) 10,10,10,10,10,10,10,2,0.2,0.1,0.1,0.1,0.1,0.1, treatment day 8, T4 10 nM) 2; (individual Exp 5-5, 174 days old, total length 36.1 mm at start, c3 onward = treatment days 1,3,5,7,8,9,10,11,12,13,14,15,16,17, T4 (nM) 10,10,10,10,10,10,10,2,0.2,0.1,0.1,0.1,0.1,0.1, treatment day 9, T4 10 nM) 2. The metamorphosis stage (individual Exp 5-5, 174 days old, total length 36.1 mm at start, c3 onward = treatment days 1,3,5,7,8,9,10,11,12,13,14,15,16,17, T4 (nM) 10,10,10,10,10,10,10,2,0.2,0.1,0.1,0.1,0.1,0.1, treatment day 10, T4 10 nM) was found to be 2; the metamorphosis stage (individual Exp 5-5, 174 days old, total length 36.1 mm at start, c3 onward = treatment days 1,3,5,7,8,9,10,11,12,13,14,15,16,17, T4 (nM) 10,10,10,10,10,10,10,2,0.2,0.1,0.1,0.1,0.1,0.1, treatment day 11, T4 2 nM) came to 3; the metamorphosis stage (individual Exp 5-5, 174 days old, total length 36.1 mm at start, c3 onward = treatment days 1,3,5,7,8,9,10,11,12,13,14,15,16,17, T4 (nM) 10,10,10,10,10,10,10,2,0.2,0.1,0.1,0.1,0.1,0.1, treatment day 12, T4 0.2 nM) turned out to be 3; the metamorphosis stage (individual Exp 5-5, 174 days old, total length 36.1 mm at start, c3 onward = treatment days 1,3,5,7,8,9,10,11,12,13,14,15,16,17, T4 (nM) 10,10,10,10,10,10,10,2,0.2,0.1,0.1,0.1,0.1,0.1, treatment day 13, T4 0.1 nM) is 3; the metamorphosis stage (individual Exp 5-5, 174 days old, total length 36.1 mm at start, c3 onward = treatment days 1,3,5,7,8,9,10,11,12,13,14,15,16,17, T4 (nM) 10,10,10,10,10,10,10,2,0.2,0.1,0.1,0.1,0.1,0.1, treatment day 14, T4 0.1 nM) was found to be 3; the metamorphosis stage (individual Exp 5-5, 174 days old, total length 36.1 mm at start, c3 onward = treatment days 1,3,5,7,8,9,10,11,12,13,14,15,16,17, T4 (nM) 10,10,10,10,10,10,10,2,0.2,0.1,0.1,0.1,0.1,0.1, treatment day 15, T4 0.1 nM) came to 3.
